target: Factor D (Homo sapiens (Human), UniProt P00746); assay: Factor D esterolytic assay; format: biochemical; settings: Z-Lys-SBzl substrate, 100 mM HEPES, 500 mM NaCl, pH 7.5, 10% DMSO; tested a minimum of three times; read-out: Measured Ki (IC50) Value for Compounds: IC50
How it was run: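 Chromogenic thioesterase read-out: Z-Lys-SBzl (1.29 mM) hydrolysis by human Factor D, thiol detected with DTNB at 405 nm (690 nm background subtracted) for 600 s. Run in 100 mM HEPES, 500 mM NaCl, pH 7.5, 10% DMSO, substrate added immediately or after room-temperature preincubation. IC50 from percent inhibition versus enzyme alone, n≥3.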

Chain of Factor D (P00746 26-253): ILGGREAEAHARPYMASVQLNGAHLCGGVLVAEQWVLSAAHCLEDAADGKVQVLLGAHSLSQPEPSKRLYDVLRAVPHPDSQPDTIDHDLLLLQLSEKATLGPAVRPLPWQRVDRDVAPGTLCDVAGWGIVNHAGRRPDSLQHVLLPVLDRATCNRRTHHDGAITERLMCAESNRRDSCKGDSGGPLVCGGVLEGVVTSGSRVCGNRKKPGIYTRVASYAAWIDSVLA

IC50 | SMILES
< 1 µM | NCc1cc(-c2cc3c(COc4ccccc4CC(=O)O)coc3c3ccoc23)ccn1 [Compound 288d, 2-(2-((5-(2-(aminomethyl)pyridin-4-yl)benzo[1,2-b:3,4-b′]difuran-3-yl)methoxy)phenyl)acetic acid]
< 1 µM | NCc1nccc(-c2cc3c(COc4ccccc4CC(=O)O)coc3c3ccoc23)c1F [Compound 289d, 2-(2-((5-(2-(aminomethyl)-3-fluoropyridin-4-yl)benzo[1,2-b:3,4-b′]difuran-3-yl)methoxy)phenyl)acetic acid]
< 1 µM | NCc1cc(-c2cc3c(COc4ccccc4CC(=O)O)cccc3o2)ccn1 [Compound 290h, 2-(2-((2-(2-(aminomethyl)pyridin-4-yl)benzofuran-4-yl)methoxy)phenyl)acetic acid]
1 to 10 µM | NCc1cccc(-c2cc3c(COc4ccccc4CC(=O)O)ccc(C4CC4)c3o2)c1 [Compound 291g, 2-(2-((2-(3-(aminomethyl)phenyl)-7-cyclopropylbenzofuran-4-yl)methoxy)phenyl)acetic acid]
< 1 µM | NCc1cccc(-c2ccc3c(c2)c(COc2ccccc2CC(=O)O)nn3C2CCCC2)c1 [Compound 292c, 2-(2-((5-(3-(aminomethyl)phenyl)-1-cyclopentyl-1H-indazol-3-yl)methoxy)phenyl)acetic acid]
< 1 µM | NCc1cccc(-c2cc(C#CC3CC3)c3occ(COc4ccccc4CC(=O)O)c3c2)c1 [Compound 294d, 2-(2-((5-(3-(aminomethyl)phenyl)-7-(cyclopropylethynyl)benzofuran-3-yl)methoxy)phenyl)acetic acid]
< 1 µM | COc1ccc(CC(=O)O)c(OCc2c(C(C)C)oc3c(NCC4CC4)cc(-c4cccc(CN)c4)cc23)c1 [Compound 295h, 2-(2-((5-(3-(aminomethyl)phenyl)-7-((cyclopropylmethyl)amino)-2-isopropylbenzofuran-3-yl)methoxy)-4-methoxyphenyl)acetic acid]
< 1 µM | COCCNc1cc(-c2cccc(CN)c2)cc2c(COc3ccccc3CC(=O)O)coc12 [Compound 296d, 2-(2-((5-(3-(aminomethyl)phenyl)-7-((2-methoxyethyl)amino)benzofuran-3-yl)methoxy)phenyl)acetic acid]
< 1 µM | CCCc1oc2ccc(-c3cccc(CN)c3F)cc2c1COc1cc(OC)ccc1CC(=O)O [Compound 297b, 2-(2-((5-(3-(aminomethyl)-2-fluorophenyl)-2-propylbenzofuran-3-yl)methoxy)-4-methoxyphenyl)acetic acid]
< 1 µM | NCc1cccc(-c2ccc3c(c2)c(COc2ccccc2CC(=O)O)nn3C2CCC2)c1 [Compound 298d, 2-(2-((5-(3-(aminomethyl)phenyl)-1-cyclobutyl-1H-indazol-3-yl)methoxy)phenyl)acetic acid]
< 1 µM | CC(C)n1nc(COc2ccccc2C(=O)O)c2cc(-c3cccc(CN)c3)ccc21 [Compound 299d, 2-((5-(3-(aminomethyl)phenyl)-1-isopropyl-1H-indazol-3-yl)methoxy)benzoic acid]
1 to 10 µM | COc1c(CN)cccc1-c1cc2c(COc3ccccc3CC(=O)O)cccc2o1 [Compound 300d, 2-(2-((2-(3-(aminomethyl)-2-methoxyphenyl)benzofuran-4-yl)methoxy)phenyl)acetic acid]
< 1 µM | NCc1cccc(-c2ccc3occ(COc4c(CC(=O)O)cccc4C(=O)O)c3c2)c1 [Compound 301d, 2-((5-(3-(aminomethyl)phenyl)benzofuran-3-yl)methoxy)-3-(carboxymethyl)benzoic acid]
> 10 µM | CC(C)n1nc(COc2cccc(C(=O)O)c2)c2cc(-c3cccc(CN)c3)ccc21 [Compound 303d, 3-((5-(3-(aminomethyl)phenyl)-1-isopropyl-1H-indazol-3-yl)methoxy)benzoic acid]
> 10 µM | CC(C)n1nc(COc2cccc(CC(=O)O)c2)c2cc(-c3cccc(CN)c3)ccc21 [Compound 304c, 2-(3-((5-(3-(aminomethyl)phenyl)-1-isopropyl-1H-indazol-3-yl)methoxy)phenyl)acetic acid]
< 1 µM | CC(C)n1nc(COc2c(C#N)cccc2CC(=O)O)c2cc(-c3cccc(CN)c3)ccc21 [Compound 305c, 2-(2-((5-(3-(aminomethyl)phenyl)-1-isopropyl-1H-indazol-3-yl)methoxy)-3-cyanophenyl)acetic acid]
< 1 µM | Cc1cccc(CC(=O)O)c1OCc1nn(C(C)C)c2ccc(-c3cccc(CN)c3)cc12 [Compound 306c, 2-(2-((5-(3-(aminomethyl)phenyl)-1-isopropyl-1H-indazol-3-yl)methoxy)-3-methylphenyl)acetic acid]

IC50 | SMILES
< 1 µM | CC(C)n1nc(COc2ccccc2CC(=O)O)c2cc(-c3cccc(CN)c3N)ccc21 [Compound 307c, 2-(2-((5-(2-amino-3-(aminomethyl)phenyl)-1-isopropyl-1H-indazol-3-yl)methoxy)phenyl)acetic acid]
1 to 10 µM | CC(C)n1nc(COc2ccccc2CCC(=O)O)c2cc(-c3cccc(CN)c3)ccc21 [Compound 308d, 3-(2-((5-(3-(aminomethyl)phenyl)-1-isopropyl-1H-indazol-3-yl)methoxy)phenyl)propanoic acid]
< 1 µM | COc1ccc(CC(=O)O)c(OCc2nn(C)c3ccc(-c4cccc(CN)c4F)cc23)c1 [Compound 309b, 2-(2-((5-(3-(aminomethyl)-2-fluorophenyl)-1-methyl-1H-indazol-3-yl)methoxy)-4-methoxyphenyl)acetic acid]
< 1 µM | CC(C)n1nc(COc2ccccc2CC(=O)O)c2cc(-c3cccc(CN)c3F)ccc21 [Compound 310b, 2-(2-((5-(3-(aminomethyl)-2-fluorophenyl)-1-isopropyl-1H-indazol-3-yl)methoxy)phenyl)acetic acid]
> 10 µM | CC(C)n1nc(COc2ccccc2CC(=O)O)c2cc(-c3ccc(CN)cc3)ccc21 [Compound 311c, 2-(2-((5-(4-(aminomethyl)phenyl)-1-isopropyl-1H-indazol-3-yl)methoxy)phenyl)acetic acid]
1 to 10 µM | CCCCC(C(=O)O)c1ccccc1OCc1nn(C(C)C)c2ccc(-c3cccc(CN)c3)cc12 (stereo not drawn) [Compound 312f, 2-(2-((5-(3-(aminomethyl)phenyl)-1-isopropyl-1H-indazol-3-yl)methoxy)phenyl)hexanoic acid]
< 1 µM | Cc1ccc(CC(=O)O)c(OCc2coc3c(C)cc(-c4cccc(CN)c4)cc23)c1 [Compound 313c, 2-(2-((5-(3-(aminomethyl)phenyl)-7-methylbenzofuran-3-yl)methoxy)-4-methylphenyl)acetic acid]
< 1 µM | CCOC(=O)Cc1ccc(OC)cc1OCc1nn(C)c2ccc(-c3ccnc(CN)c3)cc12 [Compound 315b, ethyl 2-(2-((5-(2-(aminomethyl)pyridin-4-yl)-1-methyl-1H-indazol-3-yl)methoxy)-4-methoxyphenyl)acetate]
< 1 µM | COc1ccc(CC(=O)O)c(OCc2nn(C)c3ccc(-c4ccnc(CN)c4F)cc23)c1 [Compound 316c, 2-(2-((5-(2-(aminomethyl)-3-fluoropyridin-4-yl)-1-methyl-1H-indazol-3-yl)methoxy)-4-methoxyphenyl)acetic acid]
1 to 10 µM | CC(C)n1nc(COc2ccccc2CC(=O)O)c2cc(-c3ccc(O)c(CN)c3)ccc21 [Compound 317d, 2-(2-((5-(3-(aminomethyl)-4-hydroxyphenyl)-1-isopropyl-1H-indazol-3-yl)methoxy)phenyl)acetic acid]
< 1 µM | CC(C)n1nc(COc2ccccc2CC(=O)O)c2cc(-c3cccc(CN)c3O)ccc21 [Compound 318f, 2-(2-((5-(3-(aminomethyl)-2-hydroxyphenyl)-1-isopropyl-1H-indazol-3-yl)methoxy)phenyl)acetic acid]
< 1 µM | CCc1oc2ccc(-c3cccc(CN)c3)cc2c1COc1cc(C)ccc1CC(=O)O [Compound 319c, 2-(2-((5-(3-(aminomethyl)phenyl)-2-ethylbenzofuran-3-yl)methoxy)-4-methylphenyl)acetic acid]
< 1 µM | CC(C)n1nc(COc2ccccc2CC(=O)O)c2cc(-c3cccc([C@H](C)N)c3)ccc21 [Compound 320b, (S)-2-(2-((5-(3-(1-aminoethyl)phenyl)-1-isopropyl-1H-indazol-3-yl)methoxy)phenyl)acetic acid]
1 to 10 µM | CC(C)n1nc(COc2ccccc2CC(=O)O)c2cc(-c3cccc(N)c3)ccc21 [Compound 321c, 2-(2-((5-(3-aminophenyl)-1-isopropyl-1H-indazol-3-yl)methoxy)phenyl)acetic acid]
> 10 µM | CC(C)n1nc(COc2ccccc2CC(=O)O)c2cc(-c3ccc(N)cc3)ccc21 [Compound 322c, 2-(2-((5-(4-aminophenyl)-1-isopropyl-1H-indazol-3-yl)methoxy)phenyl)acetic acid]
< 1 µM | CC(C)n1nc(COc2ccccc2CC(=O)O)c2cc(-c3cccc([C@@H](C)N)c3)ccc21 [Compound 323b, (R)-2-(2-((5-(3-(1-aminoethyl)phenyl)-1-isopropyl-1H-indazol-3-yl)methoxy)phenyl)acetic acid]
< 1 µM | COc1c(CN)cccc1-c1cc(OC)c2occ(COc3ccccc3CC(=O)O)c2c1 [Compound 324d, 2-(2-((5-(3-(aminomethyl)-2-methoxyphenyl)-7-methoxybenzofuran-3-yl)methoxy)phenyl)acetic acid]

SMILES | IC50
CC(C)n1nc(C(=O)Nc2ccccc2CC(=O)O)c2cc(-c3cccc(CN)c3)ccc21 [Compound 293c, 2-(2-(5-(3-(aminomethyl)phenyl)-1-isopropyl-1H-indazole-3-carboxamido)phenyl)acetic acid] | < 1 µM
CC(C)n1nc(C(=O)Nc2ccccc2C(=O)O)c2cc(-c3cccc(CN)c3)ccc21 [Compound 314e, 2-(5-(3-(aminomethyl)phenyl)-1-isopropyl-1H-indazole-3-carboxamido)benzoic acid] | > 10 µM
